Here are results for three molecules from patent publication US6770649B2, “1-[1-(hetero)aryl-1-perhydroxyalkylmethyl]-piperazine compounds, process for their preparation and pharmaceutical compositions containing them” (Solvay Pharmaceuticals GmbH, priority 2001, dated 2004).

For this test, the target named is T1, NK-2 receptors (Cavia porcellus, UniProt Q64077).
T1 construct: the NK-2 receptors present in the gall-bladder preparations; from tissue; host or cells: Pirbright-White guinea pig: isolated gall-bladder (A2); anaesthetised whole animal (A3)
T1 sequence (Q64077 1-402): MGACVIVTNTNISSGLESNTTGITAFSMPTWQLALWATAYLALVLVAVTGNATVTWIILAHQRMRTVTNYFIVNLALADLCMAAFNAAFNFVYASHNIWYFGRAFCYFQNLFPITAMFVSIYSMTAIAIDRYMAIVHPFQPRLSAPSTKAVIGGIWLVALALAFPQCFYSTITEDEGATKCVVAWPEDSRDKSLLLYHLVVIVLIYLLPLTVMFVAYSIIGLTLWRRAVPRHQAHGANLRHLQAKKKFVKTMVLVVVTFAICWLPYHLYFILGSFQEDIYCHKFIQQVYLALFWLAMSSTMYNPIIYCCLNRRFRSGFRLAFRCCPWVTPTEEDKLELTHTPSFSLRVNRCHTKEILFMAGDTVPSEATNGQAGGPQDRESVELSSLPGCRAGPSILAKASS
The test can be described thus: Functional NK-2 antagonism on isolated guinea pig gall-bladder preparations (NKA-induced contraction). The test is classed as cell-based. The settings on record: inhibition of contraction caused by NKA 0.1 μmol/l; two hours' incubation; Pirbright-White guinea pig gall-bladder. The protocol: 2. Determination of the Functional Antagonism of the Test Substances on Isolated Guinea Pig Tissue in vitro
The NK-2 receptor-antagonising action of the test substances was determined on isolated gall-bladder preparations from Pirbright-White guinea pigs, held in an oxygen-saturated nutrient solution. To this end, the preparations were fastened on one hand in the nutrient solution to organ holders and on the other hand on a force meter by a thread.
In this test the NK-2 receptors present in the gall-bladder preparations were stimulated with the natural NK-2 receptor agonist neurokinin A (=NKA; 0.1 μmol/l) and the contractions of the preparations caused thereby were measured as contractility in mN (=preliminary value) measured. Then NKA was rinsed out of the preparations with NKA-free solution and the test substances were added in a concentration of 10^−7 mol/l. After two hours' incubation of the preparations with the test substances, the contractions of the preparations then still caused by renewed NKA addition were again measured and the results were given as percentages, relative to the contractions initially measured, caused solely by NKA addition. The concentration of the test substances was increased iteratively in the subsequent experiments as a function of the result in logarithmic whole or half steps, until at least one concentration above or below 50% inhibition of contraction was determined (up to at most 10^−5 mol/l). For each concentration, the average value of inhibition of contraction was calculated from 2 to 4 preparations. In each case, the concentration of half-maximum inhibition (IC50) per test substance was calculated as characteristic variable. In each case the logarithmised value of the IC50 per test substance is given as pIC50 in [mol/l].
For `CN(CC(CCN1CCN(C(c2ccco2)[C@H](O)[C@@H](O)[C@H](O)CO)CC1)c1ccc(Cl)c(Cl)c1)C(=O)c1ccccc1` (mixture of isomers) [Example 13], inhibition was half-maximal at 0.398 nM (IC50).
Take `CN(C[C@@H](CCN1CCN(C(c2ccsc2)[C@H](O)[C@@H](O)[C@H](O)CO)CC1)c1ccc(Cl)c(Cl)c1)C(=O)c1ccccc1` (stereo partly drawn) [Example 1, N-((2S)-2-(3,4-dichlorophenyl)-4-{4-[(2S,3R,4R)-2,3,4,5-tetrahydroxy-1-(3-thienyl)pentyl]-1-piperazinyl}butyl)-N-methylbenzamide]: the IC50 (usually the point on the concentration scale where inhibition reaches its midpoint) was 0.158 nM.
With `CC(=O)OC[C@@H](OC(C)=O)[C@H](OC(C)=O)[C@@H](OC(C)=O)C(c1ccsc1)N1CCN(CC[C@H](CN(C)C(=O)c2ccccc2)c2ccc(Cl)c(Cl)c2)CC1` (stereo partly drawn) [Example 14] the figure was 2 nM.
